Holding throughout (assay): growth of human tumour cells (NCI), 48 h
The subject of test [1] is MDA-MB-435.
Test [2] deals with HT29 colon.
The test system of test [3] is NCI-H460 lung.
For test [4], the system named is NCI/ADR-RES ovarian.
The subject of test [5] is OVCAR-4 ovarian.
The subject of test [6] is SNB-19 CNS.
The test system of test [7] is CCRF-CEM leukemia.
The test system of test [8] is SW-620 colon.
Test [9] relates to OVCAR-3 ovarian.
The subject of test [10] is MCF7 breast.
For test [11], the system named is SNB-75 CNS.
Test [12] concerns SK-OV-3 ovarian.
Test [13] has as its system SK-MEL-5 melanoma.
In test [14] the test system is HOP-92 NSCLC.
Test [15] relates to UO-31 renal.
Test [16] concerns UACC-257 melanoma.
Test [17] relates to MDA-MB-231 breast.
For test [18], the system named is MALME-3M melanoma.
The test system of test [19] is BT-549 breast.

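1) Cells in 96-well plates. 2) Compound, 48 h, 5 concentrations. 3) Linear interpolation between surrounding doses. 4) Unreached endpoint = highest concentration. Definition used: TGI = concentration required for complete inhibition of growth.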

For the compound `n1onc2c1NC1Nc3nonc3NC1N2` (stereo not given), the TGI in test [1], in test [2], in test [3], in test [4], in [5] and in test [6] was over 100 µM in each case. The TGI in [7], in [8], in [9], in test [10], in test [11] and in [12] was over 100 µM in each case. Also, the TGI in test [13], in [14] and in test [15] was over 100 µM each time.
`C=CCOC(=O)Cn1cc(C)c(=O)[nH]c1=O`: the TGI in test [16], in [1], in test [2], in test [17], in test [3] and in test [4] was over 100 µM throughout. Moreover, the TGI in test [5], in test [6], in [7], in test [8], in test [10] and in test [11] was over 100 µM in each case. Moreover, the TGI in test [12], in [13], in test [15] and in [18] was over 100 µM in each case.
As for `CN(C)c1nc2oc(-c3ccccc3)c(-c3ccccc3)c2c2nncn12`, the TGI in [16], in test [1], in [2], in test [17], in [4] and in test [5] was over 100 µM in each case. In addition, the TGI in test [6], in [7], in test [8], in test [10], in [11] and in test [12] was over 100 µM each time. Besides, the TGI in test [14] and in [15] was over 100 µM in each case.
As for `CC1=NOC2(C1)C(=O)Nc1ccccc12` (stereo not given), the TGI in [16], in [1], in test [2], in [17], in test [3] and in [4] was over 100 µM in each case. Further, the TGI in [5], in test [6], in [7], in test [8], in [9] and in test [10] was over 100 µM throughout. The TGI in [11], in test [12], in test [13] and in test [18] was over 100 µM in each case.
With `Cn1ccc(C(=O)N2CCSC2=S)c(OCc2ccccc2)c1=O`, the TGI in [16], in test [1], in test [2], in test [17], in [3] and in [4] was over 100 µM throughout. Moreover, the TGI in test [5], in test [6], in test [7], in test [8], in [11] and in test [13] was over 100 µM each time. Also, the TGI in [19], in test [14], in [15] and in test [18] was over 100 µM in each case.
On to `c1ccc2c(c1)Nc1ccccc1[P+]21c2ccccc2Nc2ccccc21`, for which the TGI in [1] was 1.27 µM; in test [2] it was 2.9 µM; in test [17] it was 0.588 µM; in test [3], 2.81 µM; in test [4] it was over 100 µM; in test [5], over 32.5 µM. Also, the TGI in test [6] came to 1.09 µM; in [7], 0.85 µM; in test [8] it was 3.42 µM; in [9], 0.612 µM; in test [11], 0.332 µM; in test [12] it was 0.869 µM. Also, the TGI was 0.31 µM in test [13] and 23.3 µM in [15].
On to `CC(=O)N1CN2C(=O)CCC2c2ccccc21` (stereo not given), for which the TGI in test [16], in [1], in test [2], in test [17], in test [3] and in test [4] was over 100 µM each time. The TGI in [5], in test [6], in test [7], in [8], in test [9] and in test [10] was over 100 µM each time. Also, the TGI in test [11], in test [12], in [13], in test [14], in test [15] and in [18] was over 100 µM in each case.
With `CC(C)CC[C@H](O)[C@@H](C)[C@H]1[C@@H](OC2OC(C)C(O)C(O)C2O)C[C@H]2[C@@H]3CC=C4C[C@@H](O)CC[C@]4(C)[C@H]3[C@@H](O)C[C@]12C` (stereo not given in full), the TGI in [16] was 2.91 µM; in [1] it was over 100 µM; in test [2] it was over 100 µM; in [17] it was over 100 µM; in [3], over 100 µM; in test [4], over 100 µM. Besides, the TGI was over 100 µM in test [6]; over 19.9 µM in test [8]; over 100 µM in [9]; 59.1 µM in test [11]; over 100 µM in [12]; over 58 µM in [13]. Further, the TGI in test [19] was over 100 µM; in test [14], 6.7 µM; in test [15], 21.7 µM; in test [18], over 68.9 µM.
